Experimental data taken from article PMC7031696 (Cell chemical biology, 2019).
pIC50: −log10 of the molar value. Read-outs that look alike come from different tables or passages of the source.

Tests used:
[1] = system: Plasmodium falciparum 3D7-A10 parasites; assay: Stage specificity assay (8-h exposure of synchronized stages, IC50^8h); type: cell-based; details: for pIC50: Plasmodium falciparum
[2] = system: asynchronous 3D7-A10 parasite cultures; assay: Standard 72-h exposure asexual blood stage susceptibility assay (IC50^72h); type: cell-based, Plasmodium falciparum; details: Plasmodium falciparum, 3D7, 72 h, read-out: Overall (72hr assay) Mean IC50 (IC50^72h)
[3] = system: 3D7-MR4 trophozoite parasite-infected RBCs; assay: Metabolomic profiling (hydrophilic metabolite changes, UHPLC-MS); type: cell-based, Plasmodium falciparum
[4] = system: 3D7-MR4 trophozoite parasite-infected RBCs; details: 10 × IC50^72h; ref Allman et al., 2016; cited from earlier work
[5] = system: 3D7-A10 or Dd2-B2 parasites; details: 3 × IC50^72h drug concentrations; ref Phillips et al., 2015; cited from earlier work

## Cc1cc(Nc2ccc(S(F)(F)(F)(F)F)cc2)n2nc(C(C)(F)F)nc2n1 [DSM265, reference compound]
[1]; 3D7-A10
  Ratio lowest IC50 8hr/IC50 72hr: 2.0
[1]; 8-h exposures
  overall activity profile (stages on which active): activity against late trophozoites only
[1]; 8-h exposures, survival curves
  killing in stage specificity assay: incomplete killing
[1]; 3D7, read-out: Early rings Mean IC50, shift 2
  pIC50: 5.32
[1]; 3D7, read-out: Early trophozoites Mean IC50, shift 1
  pIC50: 7.99
[1]; 3D7, read-out: Early trophozoites Mean IC50, shift 2
  pIC50: 5.83
[1]; 3D7, read-out: Late rings Mean IC50, shift 2
  pIC50: 5.83
[1]; 3D7, read-out: Late trophozoites Mean IC50, shift 1
  pIC50: 8.11
[1]; 3D7, read-out: Schizonts IC50, shift 2
  pIC50: < 4.60
[1]; 3D7, read-out: Schizonts Mean IC50, shift 1
  pIC50: 7.72
[1]; early trophozoite and schizont stages
  shape of survival curve: biphasic survival curve
[1]; period when the parasite was most susceptible (lowest IC50^8h)
  Stage of peak activity (Figure 6): late trophozoite stages
[1]; stage(s) with the lowest IC50^8h
  Peak Activity (Table S1): Late Trophs
[2]
  pIC50: 8.42
[3]; metabolite 3-phosphoglycerate, log2 fold change
  Log2(fold changes) 3-phosphoglycerate: 0.0300
[3]; metabolite 4-Pyridoxic acid, log2 fold change
  Log2(fold changes) 4-Pyridoxic acid: -1.9900
[3]; metabolite 4-aminobutyrate, log2 fold change
  Log2(fold changes) 4-aminobutyrate: 0.1300
[3]; metabolite 4-phosphopantetheine, log2 fold change
  Log2(fold changes) 4-phosphopantetheine: 0.0000
[3]; metabolite 4-phosphopantothenate, log2 fold change
  Log2(fold changes) 4-phosphopantothenate: -0.1800
[3]; metabolite 5-aminopentanoic acid, log2 fold change
  Log2(fold changes) 5-aminopentanoic acid: 0.0000
[3]; metabolite 5-methyl-THF, log2 fold change
  Log2(fold changes) 5-methyl-THF: 0.0000
[3]; metabolite 5-phosphoribosyl-1-pyrophosphate, log2 fold change
  Log2(fold changes) 5-phosphoribosyl-1-pyrophosphate: -0.0200
[3]; metabolite 6-phospho-D-gluconate, log2 fold change
  Log2(fold changes) 6-phospho-D-gluconate: 0.2100
[3]; metabolite HVDD
  Log2(fold change) HVDD: 0.0000
[3]; metabolite Hydroxyisocaproic acid
  Log2(fold change) Hydroxyisocaproic acid: 0.0000
[3]; metabolite IDP
  Log2(fold change) IDP: 0.0000
[3]; metabolite IMP
  Log2(fold change) IMP: 0.1000
[3]; metabolite Inositol
  Log2(fold change) Inositol: 0.0000
[3]; metabolite Isopentyl-PP
  Log2(fold change) Isopentyl-PP: 0.0000
[3]; metabolite L-arginino-succinate
  Log2(fold change) L-arginino-succinate: 0.0000
[3]; metabolite LD
  Log2(fold change) LD: 0.0100
[3]; metabolite Myristoyl/tetradecanoyl-CoA
  Log2(fold change) Myristoyl/tetradecanoyl-CoA: 0.0000
[3]; metabolite N-Acetyl-L-alanine
  Log2(fold change) N-Acetyl-L-alanine: -0.3700
[3]; metabolite N-acetyl-L-ornithine
  Log2(fold change) N-acetyl-L-ornithine: -0.2000
[3]; metabolite N-acetyl-glucosamine-1/6-phosphate
  Log2(fold change) N-acetyl-glucosamine-1/6-phosphate: -0.7400
[3]; metabolite N-acetyl-glutamate
  Log2(fold change) N-acetyl-glutamate: 0.0900
[3]; metabolite N-acetyl-glutamine
  Log2(fold change) N-acetyl-glutamine: -0.1600
[3]; metabolite N-carbamoyl-L-aspartate
  Log2(fold change) N-carbamoyl-L-aspartate: 4.8500
[3]; metabolite NAD+
  Log2(fold change) NAD+: 0.1500
[3]; metabolite NADH
  Log2(fold change) NADH: 0.7500
[3]; metabolite NADP+
  Log2(fold change) NADP+: 0.0800
[3]; metabolite NADPH
  Log2(fold change) NADPH: 0.6400
[3]; metabolite O-acetyl-L-serine
  Log2(fold change) O-acetyl-L-serine: 0.0000
[3]; metabolite Octoluse 8/1P
  Log2(fold change) Octoluse 8/1P: 0.2400
[3]; metabolite Octoluse Bisphosphate
  Log2(fold change) Octoluse Bisphosphate: -0.2600
[3]; metabolite PD
  Log2(fold change) PD: -0.0800
[3]; metabolite PE
  Log2(fold change) PE: -0.3900
[3]; metabolite PEE
  Log2(fold change) PEE: -0.4300
[3]; metabolite PEEK
  Log2(fold change) PEEK: -0.3200
[3]; metabolite PVNF
  Log2(fold change) PVNF: -0.8600
[3]; metabolite Pyroglutamic acid
  Log2(fold change) Pyroglutamic acid: 0.0900
[3]; metabolite Pyrophosphate
  Log2(fold change) Pyrophosphate: 0.2500
[3]; metabolite Ribose-5-phosphate
  Log2(fold change) Ribose-5-phosphate: 0.0000
[3]; metabolite S-adenosyl-L-homocysteine
  Log2(fold change) S-adenosyl-L-homocysteine: -1.4900
[3]; metabolite S-adenosyl-L-methioninamine
  Log2(fold change) S-adenosyl-L-methioninamine: 0.0000
[3]; metabolite S-adenosyl-L-methionine
  Log2(fold change) S-adenosyl-L-methionine: 0.0000
[3]; metabolite S-methyl-5'-thioadenosine
  Log2(fold change) S-methyl-5'-thioadenosine: -0.0400
[3]; metabolite SD
  Log2(fold change) SD: -0.2500
[3]; metabolite SDL
  Log2(fold change) SDL: 0.0000
[3]; metabolite SID
  Log2(fold change) SID: 0.0000
[3]; metabolite Sedoheptulose bisphosphate
  Log2(fold change) Sedoheptulose bisphosphate: 0.0300
[3]; metabolite Thiamine pyrophosphate
  Log2(fold change) Thiamine pyrophosphate: 0.0000
[3]; metabolite UDP-D-glucose, log2 fold change
  Log2(fold changes) UDP-D-glucose: 0.0500
[3]; metabolite UDP-D-glucuronate, log2 fold change
  Log2(fold changes) UDP-D-glucuronate: 0.0200
[3]; metabolite UDP-N-acetyl-glucosamine, log2 fold change
  Log2(fold changes) UDP-N-acetyl-glucosamine: -0.1200
[3]; metabolite UDP, log2 fold change
  Log2(fold changes) UDP: -1.5400
[3]; metabolite UMP, log2 fold change
  Log2(fold changes) UMP: -0.9900
[3]; metabolite UTP, log2 fold change
  Log2(fold changes) UTP: -1.4400
[3]; metabolite hydroxyphenylpyruvate
  Log2(fold change) hydroxyphenylpyruvate: 0.0000
[3]; metabolite hydroxyproline/Aminolevulinate
  Log2(fold change) hydroxyproline/Aminolevulinate: 0.0000
[3]; metabolite hypoxanthine
  Log2(fold change) hypoxanthine: 0.3100
[3]; metabolite indole
  Log2(fold change) indole: 0.1900
[3]; metabolite inosine
  Log2(fold change) inosine: 0.2300
[3]; metabolite isoleucine
  Log2(fold change) isoleucine: 0.0000
[3]; metabolite lactate
  Log2(fold change) lactate: -0.1200
[3]; metabolite leucine
  Log2(fold change) leucine: 0.0000
[3]; metabolite lysine
  Log2(fold change) lysine: 0.0000
[3]; metabolite malate
  Log2(fold change) malate: -0.2600
[3]; metabolite maleic acid
  Log2(fold change) maleic acid: 0.0000
[3]; metabolite methionine
  Log2(fold change) methionine: 0.0000
[3]; metabolite myo-inositol
  Log2(fold change) myo-inositol: -0.8500
[3]; metabolite nicotinamide mononucleotide
  Log2(fold change) nicotinamide mononucleotide: 0.0000
[3]; metabolite nicotinate
  Log2(fold change) nicotinate: -0.0300
[3]; metabolite ornithine
  Log2(fold change) ornithine: -0.1100
[3]; metabolite orotate
  Log2(fold change) orotate: -0.2100
[3]; metabolite orotidine-5'-phosphate
  Log2(fold change) orotidine-5'-phosphate: 0.0000
[3]; metabolite oxaloacetate
  Log2(fold change) oxaloacetate: 0.0000
[3]; metabolite p-aminobenzoate
  Log2(fold change) p-aminobenzoate: 0.0000
[3]; metabolite p-hydroxybenzoate
  Log2(fold change) p-hydroxybenzoate: 0.2000
[3]; metabolite pantothenate
  Log2(fold change) pantothenate: 0.0000
[3]; metabolite phenylalanine
  Log2(fold change) phenylalanine: 0.0000
[3]; metabolite phenylpyruvate
  Log2(fold change) phenylpyruvate: 1.0600
[3]; metabolite phosphoenolpyruvate
  Log2(fold change) phosphoenolpyruvate: 0.0800
[3]; metabolite prephenate
  Log2(fold change) prephenate: 0.0000
[3]; metabolite proline
  Log2(fold change) proline: 0.0000
[3]; metabolite pyridoxine
  Log2(fold change) pyridoxine: 0.0000
[3]; metabolite pyruvate
  Log2(fold change) pyruvate: 0.0500
[3]; metabolite riboflavin
  Log2(fold change) riboflavin: 0.0000
[3]; metabolite ribose
  Log2(fold change) ribose: 0.0000
[3]; metabolite ribose-phosphate
  Log2(fold change) ribose-phosphate: 0.2500
[3]; metabolite ribulose-5-phosphate
  Log2(fold change) ribulose-5-phosphate: 0.0000
[3]; metabolite serine
  Log2(fold change) serine: 0.0000
[3]; metabolite sn-glycerol-3-phosphate
  Log2(fold change) sn-glycerol-3-phosphate: 0.1700
[3]; metabolite succinate/Methylmalonic acid
  Log2(fold change) succinate/Methylmalonic acid: -0.0400
[3]; metabolite succinyl-CoA/methylmalonyl-CoA
  Log2(fold change) succinyl-CoA/methylmalonyl-CoA: 0.0000
[3]; metabolite taurine
  Log2(fold change) taurine: 0.0000
[3]; metabolite thiamine
  Log2(fold change) thiamine: 0.0000
[3]; metabolite threonine/homoserine
  Log2(fold change) threonine/homoserine: 0.0000
[3]; metabolite thymidine
  Log2(fold change) thymidine: -0.5100
[3]; metabolite thymine, log2 fold change
  Log2(fold changes) thymine: -0.0500
[3]; metabolite trehalose-6-Phosphate, log2 fold change
  Log2(fold changes) trehalose-6-Phosphate: 0.0000
[3]; metabolite tryptophan, log2 fold change
  Log2(fold changes) tryptophan: 0.0000
[3]; metabolite tyrosine, log2 fold change
  Log2(fold changes) tyrosine: 0.0000
[3]; metabolite uridine, log2 fold change
  Log2(fold changes) uridine: -0.1000
[4]
  metabolic signature: increases in the pyrimidine precursors dihydroorotate and N-carbamoyl-L-aspartate (mETC disruption): observed
[5]
  minimum inoculum for resistance: 2 × 10^6 parasites
